Data set [1] concerns Human endocervival adenocarcinoma (KB3.1). The experiment in a line: cells. It is filed as cell-based. As for the experimental part:
(§1) Serial dilution assays were performed in 96-well microtiter plates to determine the minimum inhibitory concentrations (MICs) against a panel of yeasts, filamentous fungi, and bacteria, as well as the half-maximal inhibitory concentrations (IC50) against human cell lines, following our previously described protocol ([Charria-Girón et al. 2023]).

Data set [2] can be described thus: Solubility in deuterated solvents (for NMR). The conditions noted are these: observation during NMR sample preparation; deuterated solvents / deuterated DMSO. In kind it is physicochemical.
The test system of data set [3] is Bacillus subtilis (DSM 10). The data set can be described thus: microbe, parasite or virus in culture. It is filed as cell-based. As for the experimental part:
as §1

For data set [4], the system named is Staphylococcus aureus (DSM 346). The experiment in a line: microbe, parasite or virus in culture. In kind it is cell-based. As for the experimental part:
as §1

For another data set, the system named is Mouse fibroblast (L929). The data set can be described thus: Cytotoxicity assay. In kind it is cell-based. The conditions noted are these: serial dilution in 96-well plates.
Data set [5] deals with Mucor hiemalis (DSM 2656). The data set can be described thus: MIC serial dilution assay. It is filed as cell-based. The conditions noted are these: serial dilution in 96-well microtiter plates; tested up to 67 µg/mL. The procedure: as §1
In data set [6] the test system is Escherichia coli (DSM 1116). The data set can be described thus: MIC serial dilution assay. The conditions noted are these: serial dilution in 96-well microtiter plates; tested up to 67 µg/mL. In kind it is cell-based. As for the experimental part:
as §1

Data set [7] concerns Mycobacterium smegmatis (ATCC 700084). The data set can be described thus: MIC serial dilution assay. It is filed as cell-based. The conditions noted are these: serial dilution in 96-well microtiter plates; tested up to 67 µg/mL. As for the experimental part:
as §1

Data set [8] concerns Pseudomonas aeruginosa (PA14). The experiment in a line: MIC serial dilution assay. In kind it is cell-based. The conditions noted are these: serial dilution in 96-well microtiter plates; tested up to 67 µg/mL. The procedure:
as §1

For data set [9], the system named is Candida albicans (DSM 1665). The experiment in a line: MIC serial dilution assay. In kind it is cell-based. The conditions noted are these: serial dilution in 96-well microtiter plates; tested up to 67 µg/mL. As for the experimental part:
as §1

Data set [10] concerns beet armyworm (Spodoptera exigua, Lepidoptera). The data set can be described thus: Virulence of purified compounds against beet armyworm larvae (injection). It is filed as in vivo. The conditions noted are these: larvae injected with 0.5 µL of DMSO dilutions (40 to 0.625 µg/mL), n = 6 per concentration, 25 °C. As for the experimental part: To evaluate the virulence of purified compounds against beet armyworm larvae, beauveriolides I (4) and M (5) were selected based on availability, and cytochalasin D served as a positive control. […] Larvae were injected with 0.5 µL of each dilution (n = 6 per concentration), maintained at 25 °C for one week, and monitored daily to assess mortality. Saline ([…]) and DMSO served as negative controls.
For proof of concept, beauveriolides I (4) and M (5) were selected based on availability and tested following the spore-suspension protocol but considering only total mortality, with cytochalasin D, a mycotoxin commonly produced by Metarhizium spp., used as a positive control ([Kobmoo et al. 2024]).

A further data set concerns macrophages. The conditions noted are these: ref Namatame et al. 2004; cited from earlier work. The text has this:
(§2) Our study highlights how amino acid substitutions modulate beauveriolides’ bioactivities. […] Thus, the amino acid at this position is crucial for bioactivity. The lack of antimicrobial activity in some beauveriolides, such as those containing HDA, further supports the hypothesis that these molecules may have different functions, such as facilitating insect pathogenicity rather than broad antimicrobial antagonism.

For data set [11] the following is noted: ref Namatame et al. 2004; cited from earlier work.
Source text: as §2

Data set [12] relates to Human breast adenocarcinoma (MCF-7). The experiment in a line: Cytotoxicity assay. In kind it is cell-based. The conditions noted are these: serial dilution in 96-well plates. The procedure:
as §1

For data set [13], the system named is Human ovarian cancer (SKOV-3). The data set can be described thus: Cytotoxicity assay. It is filed as cell-based. The conditions noted are these: serial dilution in 96-well plates. The procedure: as §1
Data set [14] relates to Human lung carcinoma (A549). It is filed as cell-based. As for the experimental part:
as §1

Data set [15] relates to Human epidermoid carcinoma (A431). In kind it is cell-based. The procedure:
as §1

The test system of data set [16] is Human prostate carcinoma (PC-3). It is filed as cell-based. The procedure: as §1
The subject of data set [17] is Rhodotorula glutinis (DSM 10134). The data set can be described thus: MIC serial dilution assay. In kind it is cell-based. The conditions noted are these: serial dilution in 96-well microtiter plates; tested up to 67 µg/mL. The procedure: as §1
The subject of data set [18] is Chromobacterium violaceum (DSM 30191). The experiment in a line: MIC serial dilution assay. In kind it is cell-based. The conditions noted are these: serial dilution in 96-well microtiter plates; tested up to 67 µg/mL. As for the experimental part:
as §1

The subject of data set [19] is Acinetobacter baumannii (DSM 30008). The data set can be described thus: MIC serial dilution assay. In kind it is cell-based. The conditions noted are these: serial dilution in 96-well microtiter plates; tested up to 67 µg/mL. The procedure: as §1
In data set [20] the test system is Schizosaccharomyces pombe (DSM 70572). The experiment in a line: MIC serial dilution assay. It is filed as cell-based. The conditions noted are these: serial dilution in 96-well microtiter plates; tested up to 67 µg/mL. The procedure: as §1
The test system of data set [21] is Wickerhamomyces anomalus (DSM 6766). The data set can be described thus: MIC serial dilution assay. In kind it is cell-based. The conditions noted are these: serial dilution in 96-well microtiter plates; tested up to 67 µg/mL. The procedure: as §1
The mark [22] stands for this setting: KB3.1, serial dilution in 96-well plates, read-out: IC50.
[23] abbreviates: serial dilution in 96-well microtiter plates, tested up to 67 µg/mL.

The values that follow come from paper PMC12717519, “Chemical clues to infection: A pilot study on the differential secondary metabolite production during the life cycle of selected Cordyceps species” (IMA Fungus, 2025).

By IC50 is commonly meant the midpoint of a concentration-inhibition curve.

Converted amounts (≈) assume the structure as drawn. Where two headings read alike, the source gives them in different places. Some results are limits rather than exact numbers.

Consider `CCCC[C@H](C)[C@@H]1CC(=O)N[C@@H](C)C(=O)N[C@@H](C)C(=O)N[C@H](CC(C)C)C(=O)O1` [Compound 3, Beauveriolide S], for which the IC50 (in [1] (setting [22]); in the data set on Mouse fibroblast (L929)) was greater than 36.5 µM each time. Moreover, the “solubility in deuterated solvents” value in data set [2] is on record as “insoluble”. Also, the MIC result was “n.i. (No inhibition up to 67 µg/mL)” in data set [3] (setting [23]); 66.6 µg/mL (≈ 162 µM) in [4] (DSM 346); “n.i. (No inhibition up to 67 µg/mL)” in data set [5]; “n.i. (No inhibition up to 67 µg/mL)” in data set [6]; “n.i. (No inhibition up to 67 µg/mL)” in data set [7]; “n.i. (No inhibition up to 67 µg/mL)” in [8]. In [9], the MIC result was “n.i. (No inhibition up to 67 µg/mL)”.
As to `CCCC[C@H](C)[C@@H]1CC(=O)N[C@@H](Cc2ccccc2)C(=O)N[C@@H](C)C(=O)N[C@H](CC(C)C)C(=O)O1` [Compound 4, beauveriolide I], the IC50 in [1] is 13.3 µM; in data set [12], greater than 36.5 µM; in [13] it was greater than 36.5 µM; in [14], 0.9 µM; in data set [15], 1.2 µM; in [16], 3.5 µM. Also, the MIC in data set [3] (DSM 10) was 66.6 µg/mL (≈ 137 µM); in [4] (DSM 346), 66.6 µg/mL (≈ 137 µM); in [5], “n.i. (No inhibition up to 67 µg/mL)”; in data set [6], “n.i. (No inhibition up to 67 µg/mL)”; in data set [7], “n.i. (No inhibition up to 67 µg/mL)”; in data set [8] it was “n.i. (No inhibition up to 67 µg/mL)”. In addition, the MIC entry in data set [9] is reported as “n.i. (No inhibition up to 67 µg/mL)”. In data set [10] (7-day period, concentration of the value not stated), the “total mortality (TM) in the last two days” value is 67%. For the same compound, in data set [10] (concentration of the value not stated), the “average total mortality (TM) over the first five days” value is recorded as 33%. For the same compound, in the data set with macrophages, the “antiatherogenic effects in macrophages” value was “potent antiatherogenic effects”. The “adverse outcomes in animal studies” value in data set [11] is on record as “without adverse outcomes”.
In the case of `CCCC[C@H](C)[C@@H]1CC(=O)N[C@@H](C(C)C)C(=O)N[C@@H](C)C(=O)N[C@H](CC(C)C)C(=O)O1` [Compound 5, beauveriolide M], the IC50 (in data set [1] (setting [22]); in the data set with Mouse fibroblast (L929)) was greater than 36.5 µM throughout. The MIC result in [3] (setting [23]), in [4] (setting [23]), in [6], in data set [7], in [8] and in data set [9] was “n.i. (No inhibition up to 67 µg/mL)” throughout. For the same compound, the “insecticidal activity over 7 days” value in data set [10] (total mortality) is on record as “no insecticidal”.
As for Beauveriolide III [reference compound], the “antiatherogenic effects in macrophages” value in the data set on macrophages was “potent antiatherogenic effects”. Further, the “adverse outcomes in animal studies” value in data set [11] is given as “without adverse outcomes”.
Consider Beauveriolide Q [Compound 1], for which the IC50 (in data set [1] (setting [22]); with Mouse fibroblast (L929)) was greater than 36.5 µM each time. In [2], the “solubility in deuterated solvents” value is “poor solubility”. The MIC result in data set [3] (setting [23]), in data set [4] (setting [23]), in data set [5], in data set [6], in data set [7] and in data set [17] was “n.i. (No inhibition up to 67 µg/mL)” in each case. The MIC entry in data set [18], in data set [19], in data set [8], in data set [20], in data set [9] and in data set [21] was “n.i. (No inhibition up to 67 µg/mL)” in each case.
As to Beauveriolide R [Compound 2], the half-inhibitory concentration (IC50) (in data set [1] (setting [22]); with Mouse fibroblast (L929)) was greater than 36.5 µM each time. Further, in [2], the “solubility in deuterated solvents” value is listed as “soluble”. Further, the MIC result in data set [3] (setting [23]), in data set [4] (setting [23]), in data set [5], in [6], in data set [7] and in data set [17] was “n.i. (No inhibition up to 67 µg/mL)” in each case. The MIC entry in data set [18], in data set [19], in data set [8], in [20], in data set [9] and in data set [21] was “n.i. (No inhibition up to 67 µg/mL)” in each case.
